# Source: patent publication US20240057598A1, “USE OF 2-AMINO-3-METHYLHEXANOIC ACID AS PLANT IMMUNITY INDUCER” (NANJING AGRICULTURAL UNIVERSITY, priority 2020, published 2024)
# How the values were obtained:
# Pseudomonas aeruginosa = conditions: cited from earlier work
# tea variety Longjing 43 = assay: Field test: resistance of tea plants to high temperature and tea quality; format: in vivo; conditions: for Amino acid content: 5th day after use, tea leaves under high temperature stress; for Heat injury rate: 10th day after use, field; for PIABS: field heat stress
# Description: In August 2020, a field test was conducted in the Sun Yat-sen Mausoleum Tea Garden in Nanjing, and the tea variety was Longjing 43. During the test, the actual temperature of the field was 37.6° C.-45.1° C., the concentration of 2-amino-3-methylhexanoic acid was 0, 10, 100, 1,000 and 10,000 nM, and 0.02% Tween 20 was added as a surfactant. Three repetitions were set for each treatment group. In a plot area of 20 m^2, the liquid spraying volume per plot was 2 L. The pesticide was applied to the field three times on August 6, August 8 and Aug. 15, 2020 respectively. On the 3rd, 7th and 14th days after the last use of the pesticide, the phenotype of a tea tree was observed, and a leaf and a bud were sampled from the top of the tea tree. 15 leaves were taken for each treatment group, and the chlorophyll fluorescence parameter PIABS ([…]) of tea leaves was determined with a plant efficiency analyzer Handy-PEA. Samples were taken and the total amino acid content in tea leaves was determined on the 5th day after use of the pesticide, and the heat injury rate was calculated on the 10th day after use of the pesticide.
# A. ureafaciens = conditions: cited from earlier work
# Escherichia coli K-12 = conditions: cited from earlier work
# "Sikang 1" cotton = assay: Induced resistance of cotton to salt stress; format: in vivo; conditions: 100 mM NaCl, three days
# Description: The experimental material was “Sikang 1” cotton, which was cultured in water in a 500 mL plastic cup, and a ½ Hoagland nutrient solution was changed every three days. When the cotton seedling grew until the second true leaf fully unfolded, the leaf surface was sprayed with 2-amino-3-methylhexanoic acid solutions. The concentrations of 0, 1, 10, 100 and 1,000 nM were set in the experiment, and 0.02% Tween 20 was added as a surfactant. The spraying was repeated once after 24 h and conducted twice in total. On the second day after the treatment, NaCl was added to the ½ Hoagland nutrient solution to a final concentration of 100 mM to conduct salt stress treatment. There were three repetitions in each treatment group. Rehydration treatment was conducted after three days of salt stress, the salt injury symptoms of cotton were observed, and the salt injury index was calculated by a formula as follows: […]
# wheat = assay: Induced resistance of wheat to high temperature stress; format: in vivo; conditions: for Dry weight of overground part / Fresh weight of overground part / Heat injury index: 45° C. 9 h, 7 days recovery
# Description: […] A blank control was additionally set, and 0.02% Tween 20 was added as a surfactant. 4 groups of repetitions were set for each concentration, and a normal temperature blank control was set at the same time. Ryegrass seeds were weighed according to 0.8 g per pot, sowed in a pot with a diameter of 8.5 cm, and planted in a greenhouse at a temperature of 25° C., a humidity of 60%-70%, and a light intensity of 200 μmolm^−2s^−1 (12 h light/12 h dark). On the 8th day of the seedling stage, the ryegrass was sprayed with the 2-amino-3-methylhexanoic acid solutions on the leaves twice in 24 h. 24 h after the second treatment, the plants were transferred to a light incubator at a temperature of 45° C. for conducting high temperature stress treatment for 12 h, and then the plants were taken out and transferred to a greenhouse at a temperature of 25° C. for 7 days of recovery. The injured conditions of the plants were observed and counted, and the heat injury grade was calculated. […] After the counting, the fresh weight of the aboveground part of the plant was weighed, and then the aboveground part was baked in an 85° C. oven for 48 h to determine the dry weight.
# Wheat seeds were weighed according to 1.5 g per pot, and planted by a method and under conditions the same as those of ryegrass. When the wheat grew for two weeks in the seedling stage, the experiment was conducted. High temperature stress was conducted for 9 h, and the treatment method and subsequent statistical indexes were the same as those of the ryegrass mentioned above.
# [1] = tested on: tea "Baiye 1" cutting seedlings; assay: Induced resistance of tea to low temperature stress; format: in vivo; conditions: for PIABS / Cold injury index: tea seedlings, −4° C. for 24 h; for Cold injury index: 3 days recovery
# Description: The tea trees tested were “Baiye 1” cutting seedlings. Tea seedlings with relatively consistent growth were transplanted into a plastic pot with a diameter of 18 cm and placed in a greenhouse at a temperature of 25° C. and a humidity of 60%-70% for adaptive growth for about a week. The concentrations of 0, 1, 10, 100 and 1,000 nM were set in the experiment, and 0.02% Tween 20 was added as a surfactant. The spray treatment method was the same as that of the ryegrass in Example 4, and the low temperature stress treatment was conducted at −4° C. for 24 h. After the stress was completed, the tea seedlings were taken out and treated in the dark at room temperature for 30 min, and then the chlorophyll fluorescence parameters of the top leaves of the tea seedlings was determined using the plant efficiency analyzer Handy PEA. Then, the tea seedlings were placed in a 25° C. greenhouse to recover for 3 days, and the cold injury status was observed, counted and graded.
# [2] = 1,000 nM, tea leaves, low temperature stress
smiles,measurement,setting,value
CCCC(C)C(N)C(=O)O (stereo not shown) [2-amino-3-methylhexanoic acid],Inhibitory effect,Pseudomonas aeruginosa,slight inhibitory effect
same,Amino acid content,tea variety Longjing 43; 10 nM,2.03 ± 0.05b % DW
same,Heat injury rate,"tea variety Longjing 43; 10 nM, tea leaves",30%
same,PIABS,"tea variety Longjing 43; 10 nM, 3 d after last use, tea leaves",6.25 ± 0.51c
same,PIABS,"tea variety Longjing 43; 10 nM, 7 d after last use, tea leaves",6.43 ± 0.44b
same,PIABS,"tea variety Longjing 43; 10 nM, 14 d after last use, tea leaves",14.44 ± 0.59c
same,Increase of total amino acid content versus control group,"tea variety Longjing 43; 10 nM, high temperature stress",22%
same,Amino acid content,tea variety Longjing 43; 100 nM,2.21 ± 0.32a % DW
same,Heat injury rate,"tea variety Longjing 43; 100 nM, tea leaves",17%
same,PIABS,"tea variety Longjing 43; 100 nM, 3 d after last use, tea leaves",8.26 ± 0.63b
same,PIABS,"tea variety Longjing 43; 100 nM, 7 d after last use, tea leaves",8.07 ± 0.36a
same,PIABS,"tea variety Longjing 43; 100 nM, 14 d after last use, tea leaves",19.29 ± 0.95b
same,Increase of total amino acid content versus control group,"tea variety Longjing 43; 100 nM, high temperature stress",33%
same,Amino acid content,"tea variety Longjing 43; 1,000 nM",2.20 ± 0.05a % DW
same,Heat injury rate,"tea variety Longjing 43; 1,000 nM, tea leaves",15%
same,PIABS,"tea variety Longjing 43; 1,000 nM, 3 d after last use, tea leaves",8.48 ± 0.61ab
same,PIABS,"tea variety Longjing 43; 1,000 nM, 7 d after last use, tea leaves",8.14 ± 0.70a
same,PIABS,"tea variety Longjing 43; 1,000 nM, 14 d after last use, tea leaves",19.85 ± 1.04ab
same,Increase of total amino acid content versus control group,"tea variety Longjing 43; 1,000 nM, high temperature stress",33%
same,PIABS higher than control group,"tea variety Longjing 43; 10,000 nM, 3rd day after use",108%
same,Amino acid content,"tea variety Longjing 43; 10,000 nM",2.23 ± 0.08a % DW
same,PIABS higher than control group,"tea variety Longjing 43; 10,000 nM, 7th day after use",48%
same,Heat injury rate,"tea variety Longjing 43; 10,000 nM, tea leaves",14%
same,PIABS higher than control group,"tea variety Longjing 43; 10,000 nM, 14th day after use",52%
same,PIABS,"tea variety Longjing 43; 10,000 nM, 3 d after last use, tea leaves",8.68 ± 0.56a
same,PIABS,"tea variety Longjing 43; 10,000 nM, 7 d after last use, tea leaves",8.36 ± 0.51a
same,PIABS,"tea variety Longjing 43; 10,000 nM, 14 d after last use, tea leaves",21.97 ± 0.88a
same,Increase of total amino acid content versus control group,"tea variety Longjing 43; 10,000 nM, high temperature stress",34%
same,Optimum use concentration (accumulation of amino acids in tea leaves),"tea variety Longjing 43; tea leaves, high temperature stress",100 nM
same,Inhibitory effect,A. ureafaciens,slight inhibitory effect
same,Inhibitory effect,Escherichia coli K-12,obvious inhibitory effect
same,Death rate,"""Sikang 1"" cotton; 1 nM",50%
same,Salt injury index,"""Sikang 1"" cotton; 1 nM",67%
same,Death rate,"""Sikang 1"" cotton; 10 nM",50%
same,Salt injury index,"""Sikang 1"" cotton; 10 nM",63%
same,Death rate,"""Sikang 1"" cotton; 100 nM",33%
same,Salt injury index,"""Sikang 1"" cotton; 100 nM",56%
same,Death rate,"""Sikang 1"" cotton; 1,000 nM",33%
same,Salt injury index,"""Sikang 1"" cotton; 1,000 nM",47%
same,Dry weight of overground part,wheat; 10 nM,0.72 ± 0.04bc g
same,Fresh weight of overground part,wheat; 10 nM,1.76 ± 0.13c g
same,Heat injury index,wheat; 10 nM,85%
same,Dry weight of overground part,wheat; 100 nM,0.75 ± 0.04c g
same,Fresh weight of overground part,wheat; 100 nM,1.87 ± 0.12c g
same,Heat injury index,wheat; 100 nM,75%
same,Dry weight of overground part,"wheat; 1,000 nM",0.78 ± 0.05bc g
same,Fresh weight of overground part,"wheat; 1,000 nM",2.11 ± 0.30c g
same,Heat injury index,"wheat; 1,000 nM",65%
same,Decrease of heat injury index,"wheat; 10,000 nM",40%
same,Dry weight of aboveground part higher than untreated control group,"wheat; 10,000 nM",31.94%
same,Fresh weight of aboveground part higher than untreated control group,"wheat; 10,000 nM",102.84%
same,Dry weight of overground part,"wheat; 10,000 nM",0.95 ± 0.04ab g
same,Fresh weight of overground part,"wheat; 10,000 nM",3.57 ± 0.50b g
same,Heat injury index,"wheat; 10,000 nM",40%
same,PIABS,[1]; 1 nM,17.69 ± 2.12b
same,Cold injury index,[1]; 1 nM,45%
same,PIABS,[1]; 10 nM,21.30 ± 1.73ab
same,Cold injury index,[1]; 10 nM,30%
same,PIABS,[1]; 100 nM,27.01 ± 3.27a
same,Cold injury index,[1]; 100 nM,15%
same,Decrease of cold injury index,[1]; [2],65%
same,Increase of PIABS,[1]; [2],313%
same,PIABS,"[1]; 1,000 nM",30.42 ± 3.51a
same,Cold injury index,"[1]; 1,000 nM",10%
